Measured values from patent US12616681B2, “Compositions and methods for treating renal injury” (priority 2019, dated 2026).

Assays:
[1] = test system: mice with ischemic AKI (bilateral renal IRI); assay: Renal IRI (ischemic AKI) mouse model: renal function markers; assay type: in vivo, C57/BL6 mice
Method: Briefly, mice were anesthetized with isoflurane using a vaporizer, and bilateral renal arteries were clamped for 30 min (2, 49). After the ischemic time, clamps were released to induce blood reperfusion. […] Serum and kidney tissue were collected 24 h after renal IRI. […] After reperfusion for 24 h, kidney tissues (˜20 mg) were homogenized in cold PBS containing indomethacin (10 μg/mL) and then centrifuged for 10 min at 12,000 rpm. Protein concentrations of supernatant were determined by BCA assay (ThermoFisher Scientific, Rockford, IL). The PGE2 level was measured using a PGE2 ELISA kit (R&D Systems, Minneapolis, MN) in triplicate. PGE2 levels were expressed as nanograms of PGE2 per milligram of protein. Renal function was assessed by determining the serum levels of blood urea nitrogen (BUN; Abcam), serum creatinine (Agilent 6410 LC-MS/MS, Agilent, Santa Clara, CA), lipocalin-2 (R&D Systems), and kidney injury molecule-1 (KIM-1; R&D Systems) after reperfusion for 24 h. Measurement of serum creatinine was by HPLC. Serum creatinine was assessed using an Agilent 6410 LC-MS/MS system coupled with an Agilent 1200 series HPLC system (Agilent). […] The mixture was centrifuged at 13,000 rpm for 10 min after vigorous vortex, and 1 μL of supernatant was then injected into the LC-MS/MS system. The chromatography separation was performed on a Hypersil GOLD C18 column (150×2.1 mm, 3 m, Thermo Scientific) using a mobile phase of 0.1% formic acid solution and acetonitrile [70:30 (vol/vol)]. The flow rate was 0.2 mL/min. Electrospray ionization was performed in the positive ion mode. The capillary voltage was set at 4,000 V. Nitrogen as the nebulizing gas was set at 15 psi, and the drying gas temperature was set at 300° C., with a flow rate of 6 L/min. The multiple-reaction monitoring mode using specific precursor/production transition was used for quantification. […] The peak areas for all analytes were integrated automatically using Agilent Mass Hunter Analysis software (version B.01.04).

[2] = test system: mice with ischemic AKI (bilateral renal IRI); assay: Renal IRI model: necrotic and apoptotic cell death, gross pathology; assay type: in vivo, C57/BL6 mice; conditions: 24 h after renal IRI; 5 mg/kg ip three times
Source text: To evaluate necrosis, 5-μm-thick paraffin sections were stained with hematoxylin and eosin. Tubular injury of individual slides was scored semi-quantitatively according to a scoring system by a pathologist in a blinded manner. The scoring system was as follows: 0, no damage; 1, patchy isolated unicellular necrosis; 2, tubular necrosis <25%; 3, tubular necrosis 25-50%; and 4, tubular necrosis >50%. To analyze the frequency of apo ptosis, 5-μm-thick paraffin sections were subjected to a TUNEL assay (Millipore, Temecula, CA) according to the manufacturer's protocol. TUNEL-positive cells were counted in at least five separate fields (64 magnification) in the outer medulla, and the apoptosis index (in %, number of apoptosis cells/total number of cells) was calculated using GENASIS software.

[3] = test system: mice with ischemic AKI (bilateral renal IRI); assay: Renal IRI model: proinflammatory cytokines and HMGB1; assay type: in vivo, C57/BL6 mice; conditions: 24 h after renal IRI, vs IRI-vehicle mice
Method: Inflammatory cytokine mRNA and protein levels were measured by real-time PCR and ELISA. Kidney tissue and serum were harvested after reperfusion for 24 h. Total RNA was extracted from frozen kidney tissue using TRIzol reagent (ThermoFisher Scientific) according to the manufacturer's protocol. RNA was converted to cDNA using oligo-dT primers. IL-17, TNF-α, and IL-1b mRNA levels were determined by real-time PCR. Serum IL-17 (R&D Systems), TNF-α (R&D Systems), and IL-10 (R&D Systems) were measured using commercial ELISA kits according to the manufacturer's instructions.

[4] = test system: mice with ischemic AKI (bilateral renal IRI); assay: Renal IRI model: renal vasodilation and renal Doppler flux (RBF); assay type: in vivo, C57/BL6 mice; conditions: 24 h following IRI
Method: The inner arteriolar area of the outer medulla was determined using α-smooth muscle actin (α-SMA)-stained sections. Kidneys were removed without perfusion under inhalational isoflurane anesthesia, divided into three pieces horizontally, immediately fixed in 10% formalin, and then embedded in paraffin. The inner area of α-SMA-positive vessels in the outer medulla was measured using ImageJ. The results are expressed as average areas of renal arteries in the outer medulla. As a surrogate for RBF, we used noninvasive laser Doppler flowmetry (periflux system 5000, Perimed) to measure flux, placing laser-Doppler probes at a fixed position on the kidney surface and recording renal cortical measurements. […] The relative increase represents the percent increase in RDF from baseline to peak for each test.

[5] = test system: mice with ischemic AKI (bilateral renal IRI); assay: Renal IRI model: cAMP, AMP and adenosine levels; assay type: in vivo, C57/BL6 mice; conditions: 24 h post-IRI, vs sham mice
Method: After reperfusion for 24 h, kidney tissues were harvested, homogenized in 10 volumes of 0.1 M HCl, and centrifuged for 10 min at 12,000 rpm. cAMP levels in kidney tissues and serum were measured using a cAMP Complete ELISA kit (Enzo Life Science, Farmingdale, NY). AMP and adenosine in kidney tissue were assessed by Agilent 6410 LC-MS/MS. Serum adenosine was measured using an assay kit (Abnova, Walnut, CA).

[6] = test system: mice with ischemic AKI (bilateral renal IRI); assay: Renal IRI model: PGE2 (EP1-EP4) and adenosine A2A receptor expression; assay type: in vivo, C57/BL6 mice; conditions: 24 h post-IRI
Method: PGE2 receptors (EP1, EP2, EP3, and EP4) and adenosineA2A receptor mRNA levels were deter-mined by real-time PCR. Their protein levels were determined by Western blot assay and immunofluorescence analysis.

[7] = test system: mice; assay: Induction of CIAKI by intravenous contrast media in mice; assay type: in vivo, C57/BL6 mice; conditions: 10 gI/kg iv; for Cr vs normal control / KIM-1 vs normal control / NGAL vs normal control: 48 h after administration
Method: The two different […] in terms of viscosity and osmolality were administered intravenously to 5 mice for each group. Ten grams of iodine per body weight (gI/kg) of each CM was injected by a 26-gauge syringe through the tail vein. The blood samples for the analysis of functional assessment of kidney injury such as Cr, NGAL, and KIM-1 were taken at 48 h after administration (FIGS. 10(A, B)).

[8] = test system: contrast-induced acute kidney injury (CIAKI) mice; assay: CIAKI mouse model: renal function (serum creatinine, NGAL, KIM-1); assay type: in vivo, C57/BL6 mice
Method: Female mice were injected with 10 gI/kg of Visipaque (iodixanol) via the tail vein. […] For inhibition of the EP4s, mice were treated with 0.2 mg/kg/day of ONO-AE3-208 by subcutaneous injection for 14 days. Serum and kidney tissue were collected 48 h after the iodixanol injection.
Renal function was assessed by determining the serum levels of creatinine (Arbor Assays, Ann Arbor, MI, USA), NGAL (R&D Systems), and KIM-1 (R&D Systems) at 48 h after the iodixanol injection.

[9] = test system: human renal proximal tubular epithelial cells (hRPTECs); assay: hRPTEC cell viability (MTT assay) with iodixanol; assay type: cell-based; conditions: iodixanol 50 mgI/mL, 24 h; PGE1 100 ng/mL, PGE2 100 nM vs CM vehicle; CM vs normal control
Method: 3-(4,5-Dimethyl thiazol-2-yl)-2,5-diphenyl tetrazolium bromide (MTT) assay was used to assess cell viability. The hRPTECs were cultivated in 96-well plates at a density of 10^5 cells/mL and then incubated for 24 h. […] Then, 10 µM MTT (Sigma-Aldrich) was added to each well for an additional 4 h. The blue MTT formazan precipitate was dissolved in 100 mL dimethyl sulfoxide. The absorbance at 540 nm was measured with a multi-well plate reader. Cell viability was expressed as a percentage of the no-treatment cells, as the mean value±standard deviation of the six independent experiments.

[10] = test system: human renal proximal tubular epithelial cells (hRPTECs); assay: hRPTEC apoptosis by flow cytometry with iodixanol; assay type: cell-based
Method: Human renal proximal tubular epithelial cells (hRPTECs) were purchased from the American Type Culture Collection (#PCS-400-010TM, Manassas, VA, USA). These cells were grown in 75 cm^2 flasks in Renal Epithelial Cell Basal Medium (PCS-400-030TM, ATCCVR) supplemented with Renal Epithelial Cell Growth Kit (PCS-400-040TM, ATCCVR).
After the treatment described in the section above, the hRPTECs were pelleted by centrifugation at 1800 rpm for 10 min and incubated with annexin V fluorescein isothiocyanate and propidium iodide using an Apoptosis Detection Kit I (#556547, BD Biosciences, San Jose, CA, USA) according to the manufacture's instruction. Then quantification was conducted using a FACSC flow cytometer with Cell Quest software (BD Biosciences).

[11] = test system: contrast-induced acute kidney injury (CIAKI) mice; assay: CIAKI mouse model: necrotic and apoptotic cell death, gross findings; assay type: in vivo, C57/BL6 mice; conditions: 48 h after CM
Method: Kidneys were harvested at 48 h after the CM injection, fixed in 4% phosphate-buffered formalin, and embedded in paraffin. To evaluate necrosis, […] paraffin sections were stained with hematoxylin and eosin. Tubular injury was scored semi-quantitatively according to a system by a pathologist who examined at least 20 separate fields (400× magnification) in the outer medulla, which is the zone most sensitive to ischemic injury. The scoring system was as follows: 0, no damage; 1, patchy isolated unicellular necrosis; 2, tubular necrosis <25%; 3, tubular necrosis 25-50%; and 4, tubular necrosis >50%. At least 20 consecutive high-power fields per section were scored by two operators blind to the details of the experiment. To analyze the frequency of apoptosis, […] paraffin sections were subjected to terminal deoxynucleotidyl transferase-mediated dUTP nick-end labeling (TUNEL) assay (Millipore, Temecula, CA, USA) according to the manufacturer's protocol. Four […] paraffin sections were incubated with the TUNEL reaction mixture at 37° C. for 1 h, followed by incubation with a horseradish peroxidase-conjugated detection antibody. The signals were visualized using diaminobenzidine (Sigma-Aldrich). After counterstaining with Mayer's hematoxylin, TUNEL-positive cells were counted in at least five separate fields (640× magnification) in the outer medulla, and the apoptosis index (%, number of apoptosis cells/total number of cells) was calculated using GENASIS software.

[12] = test system: contrast-induced acute kidney injury (CIAKI) mice; assay: CIAKI mouse model: renal blood flow (laser Doppler flux); assay type: in vivo, C57/BL6 mice
Method: Total RBF was assessed by measuring renal Doppler flux using noninvasive laser Doppler flowmetry (PeriFlux System 5000, Perimed AB, Sweden). Laser Doppler probes were placed on the kidney surface to measure the renal flux. The flux was measured 48 h after CM administration. The relative increase represented the percentage increase in renal blood flow from baseline to peak for each test. Statistical significance was set as p<0.05.

[13] = iodixanol 10 gI/kg + vehicle, 48 h after CM

COc1ccc2c(c1)c(CC(=O)O)c(C)n2C(=O)c1ccc(Cl)cc1 [indomethacin, reference compound]
BUN (serum) ([1]; 24 h after renal IRI, vs IRI-vehicle mice, dosing before and after IRI): increase
tissue congestion in the outer medulla (gross pathology) [2]: worsened
HMGB1 levels in kidney tissue [3]: increased
RDF-inferred RBF [4]: reduced
renal cAMP [5]: reduced
EP1 receptor mRNA levels [6]: increased
EP4 receptor mRNA levels [6]: reduced
levels of EP2 receptors [6]: no effect
levels of EP3 receptors [6]: no effect

CN(CC(O)CO)C(=O)c1c(I)c(NC(=O)C(CO)CO)c(I)c(C(=O)N(C)CC(O)CO)c1I (stereo not drawn) [Xenetix]
Cr vs normal control [7]: significant increase
KIM-1 vs normal control [7]: did not show significant differences
NGAL vs normal control [7]: did not show significant differences

CC(=O)N(CC(O)CN(C(C)=O)c1c(I)c(C(=O)NCC(O)CO)c(I)c(C(=O)NCC(O)CO)c1I)c1c(I)c(C(=O)NCC(O)CO)c(I)c(C(=O)NCC(O)CO)c1I (stereo not drawn) [Visipaque, iodixanol]
necrosis and apoptosis (Renal injury score and TUNEL assay) vs normal control ([7]; 48 h): significantly higher
Cr vs normal control [7]: elevation
KIM-1 vs normal control [7]: elevation
NGAL vs normal control [7]: elevation
serum KIM-1 in CM-treated mice [8, 13]: 1.41 ± 0.41 ng/mL
serum NGAL in CM-treated mice [8, 13]: 299.71 ± 38.64 ng/mL
serum creatinine in CM-treated mice [8, 13]: 1.94 ± 0.24 mg/dL
cell viability (MTT), in words [9]: significantly lower
increase of apoptosis rate of hRPTECs in the CM group compared to the normal group ([10]; iodixanol 50 mgI/mL, 24 h): more than 2.5 times

CCCCC[C@H](O)/C=C/[C@H]1[C@H](O)CC(=O)[C@@H]1CCCCCCC(=O)O [PGE1, prostaglandin E1]
serum creatinine, effect in words ([8]; CIAKI mice, 48 h after CM): decreased
TUNEL-positive cell proportions vs CIAKI mice, in words [11]: significantly lower
renal injury score, effect in words [11]: No reduction
vascular congestion in the outer medullary region (gross findings) [11]: prominent vascular congestion
cell viability (MTT), in words [9]: did not show any difference
apoptotic rate vs CM vehicle group, in words ([10]; PGE1 100 ng/mL with iodixanol 50 mgI/mL): no differences
preservation of RBF from CM-induced reduction, in words ([12]; 48 h after CM): did not

CC(C(=O)Nc1cc(C#N)ccc1CCCC(=O)O)c1ccc(F)c2ccccc12 (stereo not drawn) [ONO-AE3-208]
beneficial effects of SW033291 on BUN, serum creatinine, serum Kim-1 and RDF-inferred RBF ([1]; ONO-AE3-208 10 mg/kg co-administered with the three-dose schedule of SW033291 in IRI mice): substantially blocked
serum creatinine, absence or presence of ONO-AE3-208 ([8]; CIAKI mice (FIG. 15E), SW033291 line = CM + SW033291, ONO-AE3-208 line = CM + ONO-AE3-208 + SW033291): 1.51 ± 0.31 mg/dL
serum NGAL, absence or presence of ONO-AE3-208 ([8]; CIAKI mice (FIG. 15F), SW033291 line = CM + SW033291, ONO-AE3-208 line = CM + ONO-AE3-208 + SW033291): 229.85 ± 27.12 ng/mL
serum KIM-1, absence or presence of ONO-AE3-208 ([8]; CIAKI mice (FIG. 15G), SW033291 line = CM + SW033291, ONO-AE3-208 line = CM + ONO-AE3-208 + SW033291): 0.85 ± 0.26 ng/mL
increase in RBF by SW033291 treatment ([12]; ONO-AE3-208 with SW033291 (FIG. 15H)): blocked the increase
